Assay results from patent US8138158B2, “Compositions and methods for therapy for diseases characterized by defective chloride transport” (Children's Hospital & Research Center at Oakland, priority 1997, dated 2012).

Legend:
CFTR Cl channels = target: T1, CFTR Cl channels (Homo sapiens, UniProt P13569); assay: Outside-out single channel patch clamp on Calu-3 cells; assay type: cell-based
T1 construct: Calu-3 airway cells which express large amounts of native CFTR; endogenous in cells; host or cells: Calu-3 human airway epithelial cells
Method: Patch clamp analysis. Single channel patch clamp studies were performed on Calu-3 cells at 37° C. The outside-out recording mode was established via the whole cell mode as described (Fischer, H. (2001) in Methods in Molecular Medicine, […]. & Walker, J. M. (Humana Press Inc, Totowa), pp. 49-66.). The bath solution contained (in mM) 145 NaCl, 1.7 CaCl2, 1 MgCl2, 10 Hepes, 10 glucose, pH=7.4. The pipette solution contained (in mM): 15 N-methyl-D-glucamine (NMG) Cl, 10 EGTA, 1 MgCl2, 10 Hepes, 10 glucose, 120 NMG-gluconate, 5 MgATP, 0.1 LiGTP, pH=7.4. […] The regulatory role of vitamin C on Cl ion channel activity was studied in Calu-3 airway cells which express large amounts of native CFTR as their major Cl conductance ([…]., Widdicombe, J. H. & Wine, J. J. (1994) Am. J. Physiol. 266, […]-[…]). […] Details of the single channel recording are illustrated in FIG. 20C. […] At negative potentials no channel openings were resolved indicating Cl-over-gluconate selectivity. Cyclic AMP is the major intracellular messenger for the activation of CFTR. We tested the possibility that L-ascorbic acid increased intracellular cAMP levels [cAMP], by either turning on cAMP production or preventing cAMP degradation. FIG. 20E compares whole cell cAMP levels of Calu-3 cells challenged with either increasing concentrations of L-ascorbic acid or the cAMP agonist forskolin.

ΔF508 CFTR = target: T2, ΔF508 CFTR (Mus musculus, UniProt P26361, DEL508-508); assay: Rectal potential difference (RPD) in mice homozygous for ΔF508 CFTR; assay type: in vivo
T2 construct: from tissue; host or cells: rectal mucosa of living ΔF508 CF mice (C57Bl6/J), TMAO-treated or water-injected
From the text: CF mice and rectal potential difference (RPD) measurements. Gene-targeted mice homozygous for the ΔF508 mutation (C57Bl6/J) received Golytely® (Braintree Laboratories, Inc.), a diarrhetic supplement, in the drinking water to increase their lifespan (Clarke, L. L., Gawenis, L. R., Franklin, C. L. & Harline, M. C. (1996) Lab. Anim. Sci. 46, 612-8). To correct the maturation defect of ΔF508 CFTR we used the chemical chaperone trimethylamine oxide (TMAO) (Brown, C. R., Hong-Brown, L. Q., Biwersi, J., Verkman, A. S. & Welch, W. J. (1996) Cell Stress Chaperones 1, 117-25). CF mice were injected with 4 mg/g TMAO from a 4 M stock solution every 8 hours for 24 hours, which is a regimen to partially correct the ΔF508 defect in CF mice (Fischer, H., Barbry, P., Illek, B., Sartori, C., Fukuda, N. & Matthay, M. A. (2001) Am. J. Physiol. 281, L52-L57). Controls were water-injected. The RPD assay was performed on mice that were anesthetized with 0.1 mg/g body weight ketamine and 0.01 mg/g body weight azepromazine. RPD was sensed with a 1 M NaCl agar bridge inserted ˜1 cm into the rectum vs. a subcutaneous needle filled with 1 M NaCl. Measurements were performed in Cl free solution containing 100 μm amiloride and 5 mM Ba(OH)2 to isolate the Cl-selective RPD.
In this Example, it was determined whether L-ascorbic acid affected the functional activation of ΔF508 CFTR in a CF-affected organism in vivo. Using gene-targeted mice homozygous for the ΔF508 mutation it was shown previously that the osmolyte trimethylamine oxide (TMAO) effectively supported ΔF508 CFTR trafficking in vivo (Fischer, H., Barbry, P., Illek, B., Sartori, C., Fukuda, N. & Matthay, M. A. (2001) Am. J. Physiol. 281, L52-L57). Accordingly, the effect of L-ascorbic acid was tested in homozygous ΔF508 CF mice treated with TMAO by using the RPD assay as a functional end point measure for mutant ΔF508-CFTR function. FIG. 24A illustrates that TMAO-treated CF mice manifested a detectable response to a maximal dose of L-ascorbic acid (1 mM) or its epimer D-isoascorbic acid (300 μM) and RPD hyperpolarized on average by −3.2±0.8 mV (n=4) and −3.6±1.8 mV (n=3), respectively (FIG. 24B).

T1 sequence (P13569 whole entry): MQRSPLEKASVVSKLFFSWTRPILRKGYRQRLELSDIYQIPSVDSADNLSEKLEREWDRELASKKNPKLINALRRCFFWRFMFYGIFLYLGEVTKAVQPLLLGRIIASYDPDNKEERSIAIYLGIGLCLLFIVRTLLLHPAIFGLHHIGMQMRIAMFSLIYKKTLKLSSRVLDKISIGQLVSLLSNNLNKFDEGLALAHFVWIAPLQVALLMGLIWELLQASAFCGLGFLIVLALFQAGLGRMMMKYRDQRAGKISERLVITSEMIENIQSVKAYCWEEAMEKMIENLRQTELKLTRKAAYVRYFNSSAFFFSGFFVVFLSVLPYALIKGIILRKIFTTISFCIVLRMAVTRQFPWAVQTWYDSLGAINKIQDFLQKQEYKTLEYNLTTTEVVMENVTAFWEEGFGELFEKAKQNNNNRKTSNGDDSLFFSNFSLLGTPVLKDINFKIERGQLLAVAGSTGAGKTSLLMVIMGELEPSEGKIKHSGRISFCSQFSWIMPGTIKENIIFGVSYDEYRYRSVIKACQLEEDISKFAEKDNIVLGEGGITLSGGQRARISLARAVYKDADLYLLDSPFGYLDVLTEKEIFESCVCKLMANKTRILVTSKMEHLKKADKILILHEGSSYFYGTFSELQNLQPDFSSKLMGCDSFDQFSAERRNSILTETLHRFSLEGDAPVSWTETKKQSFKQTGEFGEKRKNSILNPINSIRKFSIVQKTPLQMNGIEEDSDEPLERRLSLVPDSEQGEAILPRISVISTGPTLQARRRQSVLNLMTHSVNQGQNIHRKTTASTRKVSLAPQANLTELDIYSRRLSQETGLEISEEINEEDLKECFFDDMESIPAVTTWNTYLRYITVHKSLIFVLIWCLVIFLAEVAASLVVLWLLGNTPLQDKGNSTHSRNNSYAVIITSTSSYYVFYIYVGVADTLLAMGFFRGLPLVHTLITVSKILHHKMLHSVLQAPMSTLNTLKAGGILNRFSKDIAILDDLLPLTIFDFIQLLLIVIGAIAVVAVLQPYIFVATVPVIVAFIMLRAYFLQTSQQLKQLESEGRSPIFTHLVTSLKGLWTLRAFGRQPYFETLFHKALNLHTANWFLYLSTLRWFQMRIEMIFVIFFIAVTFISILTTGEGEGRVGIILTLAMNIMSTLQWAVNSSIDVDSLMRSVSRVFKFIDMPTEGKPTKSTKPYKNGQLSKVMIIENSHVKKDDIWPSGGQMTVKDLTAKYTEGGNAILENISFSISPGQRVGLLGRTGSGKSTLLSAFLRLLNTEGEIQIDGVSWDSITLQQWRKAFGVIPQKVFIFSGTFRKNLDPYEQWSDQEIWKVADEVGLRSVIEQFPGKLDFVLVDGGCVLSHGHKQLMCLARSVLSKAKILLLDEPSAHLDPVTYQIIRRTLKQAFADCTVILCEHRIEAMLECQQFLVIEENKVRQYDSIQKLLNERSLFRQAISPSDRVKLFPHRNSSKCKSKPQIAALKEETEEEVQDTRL
T2 sequence (P26361 with tags, fused parts or gaps DEL508-508): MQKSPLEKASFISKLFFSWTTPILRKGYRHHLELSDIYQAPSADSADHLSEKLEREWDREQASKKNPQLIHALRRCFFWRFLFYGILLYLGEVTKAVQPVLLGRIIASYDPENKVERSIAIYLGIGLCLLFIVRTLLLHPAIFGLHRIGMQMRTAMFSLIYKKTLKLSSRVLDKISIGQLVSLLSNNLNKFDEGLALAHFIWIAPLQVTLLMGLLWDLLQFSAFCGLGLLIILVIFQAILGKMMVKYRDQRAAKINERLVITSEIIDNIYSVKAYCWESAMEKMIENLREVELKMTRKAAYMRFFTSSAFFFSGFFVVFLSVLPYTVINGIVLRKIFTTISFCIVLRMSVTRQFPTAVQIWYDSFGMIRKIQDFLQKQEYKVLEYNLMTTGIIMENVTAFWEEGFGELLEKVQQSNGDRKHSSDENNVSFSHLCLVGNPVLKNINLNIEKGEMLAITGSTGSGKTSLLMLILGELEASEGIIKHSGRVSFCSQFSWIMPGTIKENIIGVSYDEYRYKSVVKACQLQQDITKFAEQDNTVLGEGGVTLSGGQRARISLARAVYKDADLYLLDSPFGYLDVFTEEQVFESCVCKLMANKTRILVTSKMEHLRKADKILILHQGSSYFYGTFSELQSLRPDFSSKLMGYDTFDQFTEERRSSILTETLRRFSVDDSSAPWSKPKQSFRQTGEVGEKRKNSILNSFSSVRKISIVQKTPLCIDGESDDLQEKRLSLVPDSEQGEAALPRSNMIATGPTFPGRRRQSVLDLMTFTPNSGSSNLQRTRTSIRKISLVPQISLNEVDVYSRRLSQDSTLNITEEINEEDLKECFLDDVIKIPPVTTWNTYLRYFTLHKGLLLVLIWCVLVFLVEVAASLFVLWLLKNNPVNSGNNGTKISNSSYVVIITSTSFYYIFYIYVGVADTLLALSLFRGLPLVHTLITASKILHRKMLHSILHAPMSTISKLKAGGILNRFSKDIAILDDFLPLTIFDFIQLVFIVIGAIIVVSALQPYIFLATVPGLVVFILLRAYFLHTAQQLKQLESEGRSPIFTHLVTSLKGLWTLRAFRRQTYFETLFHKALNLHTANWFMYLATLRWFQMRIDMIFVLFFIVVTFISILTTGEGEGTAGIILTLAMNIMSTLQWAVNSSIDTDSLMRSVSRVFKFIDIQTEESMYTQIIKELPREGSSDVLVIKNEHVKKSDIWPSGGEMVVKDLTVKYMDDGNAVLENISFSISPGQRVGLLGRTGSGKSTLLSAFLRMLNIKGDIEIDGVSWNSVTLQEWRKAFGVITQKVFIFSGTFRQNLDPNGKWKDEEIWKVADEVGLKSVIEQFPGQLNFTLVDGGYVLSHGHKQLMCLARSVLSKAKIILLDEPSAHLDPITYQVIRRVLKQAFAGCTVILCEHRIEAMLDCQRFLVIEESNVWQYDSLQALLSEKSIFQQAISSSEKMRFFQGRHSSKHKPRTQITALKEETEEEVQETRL

SMILES: O=C1O[C@H](C(O)CO)C(O)=C1O (stereo partly drawn) [L-ascorbic acid, L-xyloascorbic acid]
- average single channel open probability (Po) increased from zero to (CFTR Cl channels; 100 μM L-ascorbic acid, n=4): 0.21±0.08
- CFTR Cl channel openings (CFTR Cl channels; applied to extracellular surface of the patched membrane): induced openings of CFTR Cl channels
- slope conductance of ascorbate-stimulated chloride conductance (CFTR Cl channels; n=4): 8.9±0.2 pS
- RPD hyperpolarized on average by (ΔF508 CFTR; CF mice treated with 4 mg/g TMAO for 24 hours, L-ascorbic acid 1 mM, n=4): −3.2±0.8 mV
- ΔRPD (ΔF508 CFTR; water-injected control CF mice, L-ascorbic acid or D-isoascorbic acid, n=9): −1.1±0.4 mV
